Literature values as cited in patent US20090062239A1, “THROMBIN RECEPTOR ANTAGONISTS AS PROPHYLAXIS TO COMPLICATIONS FROM CARDIOPULMONARY SURGERY” (Schering Corporation, priority 2005, published 2009).

How the values were obtained:
[1] = treated patients, cardiac/coronary surgery
[2] = high-risk patients undergoing primary CABG, those on aspirin, reoperative bypass
[3] = vein grafts closing off between two weeks and one year after CABG surgery

Molecule	risk for postoperative hemorrhage [1]	other results
low-molecular weight heparin	greater risk	–
Aprotinin	–	postoperative blood loss [2]: significantly decreases; transfusion requirements (both units and number of patients) [2]: significantly decreases
COC(=O)[C@H](c1ccccc1Cl)N1CCc2sccc2C1 [clopidogrel]	greater risk	–
CC(=O)Oc1ccccc1C(=O)O [aspirin]	–	reduction of later vein graft closings [3]: 50%
abciximab	greater risk	–
